Source: US20220281848A1, “PYRAZOLE-SUBSTITUTED PYRROLIDINONES AS HERBICIDES” (FMC Corporation, priority 2019, published 2022)

Key:
[1] = tested on: barnyardgrass (Echinochloa crus-galli, ECHCG); assay: Test A pre-emergence, barnyardgrass; assay type: in vivo; conditions: after 13 d
In short: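 Seeds were sown in standard soil in pots, kept one day in a glasshouse (24/16° C. day/night, 14 h light, 65% humidity), then sprayed with compound in acetone/water (50:50) containing 0.5% Tween 20 at 15.625, 62.5 or 250 g/ha. Plants grew on under the same conditions, watered twice daily, and damage was scored after 13 d (0 = none, 100 = total).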

plants = assay: Test D post-emergence, other plants of Tables D2 and D4; assay type: in vivo; conditions: for ALOMY damage rating (100=total damage to plant; 0=no damage to plant) / AVEFA damage rating (100=total damage to plant; 0=no damage to plant) / BEAVA damage rating (100=total damage to plant; 0=no damage to plant) / BROTE damage rating (100=total damage to plant; 0=no damage to plant) / BRSNN damage rating (100=total damage to plant; 0=no damage to plant) / CHEAL damage rating (100=total damage to plant; 0=no damage to plant) / GALAP damage rating (100=total damage to plant; 0=no damage to plant) / HORVW damage rating (100=total damage to plant; 0=no damage to plant) / KCHSC damage rating (100=total damage to plant; 0=no damage to plant) / LOLPE damage rating (100=total damage to plant; 0=no damage to plant) / POAAN damage rating (100=total damage to plant; 0=no damage to plant) / POLCO damage rating (100=total damage to plant; 0=no damage to plant) / SINAR damage rating (100=total damage to plant; 0=no damage to plant) / STEME damage rating (100=total damage to plant; 0=no damage to plant) / VERPE damage rating (100=total damage to plant; 0=no damage to plant): "Cereals" Postemergent, evaluated after 15 d
Experimental: A formulation containing 50 g/L of the test chemical was prepared by dissolving the active ingredient in a mixture of organic solvents and emulsifier, details of which are provided in the table. This formulation was then mixed with a small, variable amount of acetone to aid dissolution, before addition of a 0.2% v/v aqueous solution of an adjuvant, as the aqueous diluent, to form an aqueous spray solution which contains a predetermined concentration of the active ingredient.
This aqueous spray solution was then sprayed onto plants including maize and wheat that had been seed treated with a herbicide safener, after one day's cultivation (for pre-emergence) or after about 12 days' cultivation (for post-emergence). The plants were grown from seeds sown in standard soil, placed in a glasshouse under controlled conditions (at 24/18° C. or 20/16° C., day/night; 16 h light; 65% humidity). After spray application the plants were then grown in a glasshouse under the same conditions and watered twice daily. After 15 d for post-emergence and 20 DAA for pre-emergence the test was evaluated (100=total damage to plant; 0=no damage to plant).

## CN1CC(c2cc(C(F)(F)F)n(C)n2)C(C(=O)Nc2cccc(F)c2F)C1=O (racemic) [Compound 3]
[1]; Pre-Emergence at 15.625 g/ha
  damage to plant (100=total damage; 0=no damage) ECHCG: 100
[1]; Pre-Emergence at 62.5 g/ha
  damage to plant (100=total damage; 0=no damage) ECHCG: 100
[1]; Pre-Emergence at 250 g/ha
  damage to plant (100=total damage; 0=no damage) ECHCG: 100
plants; Rates 130
  ALOMY damage rating (100=total damage to plant; 0=no damage to plant): 0
  AVEFA damage rating (100=total damage to plant; 0=no damage to plant): 0
  BEAVA damage rating (100=total damage to plant; 0=no damage to plant): 0
  BROTE damage rating (100=total damage to plant; 0=no damage to plant): 0
  BRSNN damage rating (100=total damage to plant; 0=no damage to plant): 10
  CHEAL damage rating (100=total damage to plant; 0=no damage to plant): 0
  GALAP damage rating (100=total damage to plant; 0=no damage to plant): 0
  HORVW damage rating (100=total damage to plant; 0=no damage to plant): 0
  KCHSC damage rating (100=total damage to plant; 0=no damage to plant): 0
  LOLPE damage rating (100=total damage to plant; 0=no damage to plant): 0
  POAAN damage rating (100=total damage to plant; 0=no damage to plant): 0
  POLCO damage rating (100=total damage to plant; 0=no damage to plant): 0
  SINAR damage rating (100=total damage to plant; 0=no damage to plant): 0
  STEME damage rating (100=total damage to plant; 0=no damage to plant): 0
  VERPE damage rating (100=total damage to plant; 0=no damage to plant): 0
plants; Rates 250
  ALOMY damage rating (100=total damage to plant; 0=no damage to plant): 0
  AVEFA damage rating (100=total damage to plant; 0=no damage to plant): 0
  BEAVA damage rating (100=total damage to plant; 0=no damage to plant): 10
  BROTE damage rating (100=total damage to plant; 0=no damage to plant): 0
  BRSNN damage rating (100=total damage to plant; 0=no damage to plant): 10
  CHEAL damage rating (100=total damage to plant; 0=no damage to plant): 0
  GALAP damage rating (100=total damage to plant; 0=no damage to plant): 0
  HORVW damage rating (100=total damage to plant; 0=no damage to plant): 0
  KCHSC damage rating (100=total damage to plant; 0=no damage to plant): 0
  LOLPE damage rating (100=total damage to plant; 0=no damage to plant): 0
  POAAN damage rating (100=total damage to plant; 0=no damage to plant): 20
  POLCO damage rating (100=total damage to plant; 0=no damage to plant): 0
  SINAR damage rating (100=total damage to plant; 0=no damage to plant): 0
  STEME damage rating (100=total damage to plant; 0=no damage to plant): 0
  VERPE damage rating (100=total damage to plant; 0=no damage to plant): 0
plants; Rates 500
  ALOMY damage rating (100=total damage to plant; 0=no damage to plant): 20
  AVEFA damage rating (100=total damage to plant; 0=no damage to plant): 30
  BEAVA damage rating (100=total damage to plant; 0=no damage to plant): 10
  BROTE damage rating (100=total damage to plant; 0=no damage to plant): 0
  BRSNN damage rating (100=total damage to plant; 0=no damage to plant): 0
  CHEAL damage rating (100=total damage to plant; 0=no damage to plant): 0
  GALAP damage rating (100=total damage to plant; 0=no damage to plant): 0
  HORVW damage rating (100=total damage to plant; 0=no damage to plant): 30
  KCHSC damage rating (100=total damage to plant; 0=no damage to plant): 0
  LOLPE damage rating (100=total damage to plant; 0=no damage to plant): 0
  POAAN damage rating (100=total damage to plant; 0=no damage to plant): 50
  POLCO damage rating (100=total damage to plant; 0=no damage to plant): 0
  SINAR damage rating (100=total damage to plant; 0=no damage to plant): 10
  STEME damage rating (100=total damage to plant; 0=no damage to plant): 10
  VERPE damage rating (100=total damage to plant; 0=no damage to plant): 60
plants; post-emergence, rate 130, evaluated after 15 d
  damage to plant (100=total damage to plant; 0=no damage to plant), ABUTH: 0
plants; post-emergence, rate 250, evaluated after 15 d
  damage to plant (100=total damage to plant; 0=no damage to plant), ABUTH: 0
plants; post-emergence, rate 500, evaluated after 15 d
  damage to plant (100=total damage to plant; 0=no damage to plant), ABUTH: 0
plants; post-emergence, AMARE, rate 130, evaluated after 15 d
  damage to plant (100=total damage to plant; 0=no damage to plant), AMARE: 0
